How the values were obtained:
Test in all cases: radiometric filter-binding kinase assay, Kinase HotSpot
Conditions in all cases: compound 0.5 µM; ATP 10 µM
[1] = target: GSG2 (human) (UniProt Q8TF76)
[2] = target: MAPK8 (human) (UniProt P45983)
[3] = target: JAK1 JH1 catalytic (human) (UniProt P23458)
[4] = target: NEK6 (human) (UniProt Q9HC98)
[5] = target: EPHB2 (human) (UniProt P29323)
[6] = target: CAMK1G (human) (UniProt Q96NX5)
[7] = target: MUSK (human) (UniProt O15146)
[8] = target: DCLK2 (human) (UniProt Q8N568)
[9] = target: MST1R (human) (UniProt Q04912)
[10] = target: PLK3 (human) (UniProt Q9H4B4)
[11] = target: PLK2 (human) (UniProt Q9NYY3)
[12] = target: DYRK4 (human) (UniProt Q9NR20)
[13] = target: NTRK3 (human) (UniProt Q16288)
[14] = target: EPHB4 (human) (UniProt P54760)
[15] = target: MERTK (human) (UniProt Q12866)
[16] = target: MATK (human) (UniProt P42679)
[17] = target: GSK3B (human) (UniProt P49841)
[18] = target: CSNK1E (human) (UniProt P49674)
[19] = target: CDK6 CCND1 (human) (UniProt Q00534+P24385)
[20] = target: SLK (human) (UniProt Q9H2G2)
[21] = target: MARK2 (human) (UniProt Q7KZI7)
[22] = target: FGFR2 (human) (UniProt P21802)
[23] = target: PHKG2 (human) (UniProt P15735)
[24] = target: STK25 (human) (UniProt O00506)
[25] = target: NUAK2 (human) (UniProt Q9H093)
[26] = target: PIM2 (human) (UniProt Q9P1W9)
[27] = target: DYRK1B (human) (UniProt Q9Y463)
[28] = target: MAP3K9 (human) (UniProt P80192)
[29] = target: CSNK1G3 (human) (UniProt Q9Y6M4)
[30] = target: NTRK1 (human) (UniProt P04629)
[31] = target: NEK2 (human) (UniProt P51955)
[32] = target: CDK5 CDK5R1 p35 (human) (UniProt Q00535+Q15078)
[33] = target: BRSK2 (human) (UniProt Q8IWQ3)
[34] = target: DMPK (human) (UniProt Q09013)
[35] = target: WNK2 (human) (UniProt Q9Y3S1)
[36] = target: STK17A (human) (UniProt Q9UEE5)
[37] = target: TYRO3 (human) (UniProt Q06418)
[38] = target: FGFR1 (human) (UniProt P11362)
[39] = target: PTK2B (human) (UniProt Q14289)
[40] = target: PASK (human) (UniProt Q96RG2)
[41] = target: CSNK1D (human) (UniProt P48730)
[42] = target: IRAK1 (human) (UniProt P51617)

Sequence of DCLK2 (human) (Q8N568 whole entry, looked up): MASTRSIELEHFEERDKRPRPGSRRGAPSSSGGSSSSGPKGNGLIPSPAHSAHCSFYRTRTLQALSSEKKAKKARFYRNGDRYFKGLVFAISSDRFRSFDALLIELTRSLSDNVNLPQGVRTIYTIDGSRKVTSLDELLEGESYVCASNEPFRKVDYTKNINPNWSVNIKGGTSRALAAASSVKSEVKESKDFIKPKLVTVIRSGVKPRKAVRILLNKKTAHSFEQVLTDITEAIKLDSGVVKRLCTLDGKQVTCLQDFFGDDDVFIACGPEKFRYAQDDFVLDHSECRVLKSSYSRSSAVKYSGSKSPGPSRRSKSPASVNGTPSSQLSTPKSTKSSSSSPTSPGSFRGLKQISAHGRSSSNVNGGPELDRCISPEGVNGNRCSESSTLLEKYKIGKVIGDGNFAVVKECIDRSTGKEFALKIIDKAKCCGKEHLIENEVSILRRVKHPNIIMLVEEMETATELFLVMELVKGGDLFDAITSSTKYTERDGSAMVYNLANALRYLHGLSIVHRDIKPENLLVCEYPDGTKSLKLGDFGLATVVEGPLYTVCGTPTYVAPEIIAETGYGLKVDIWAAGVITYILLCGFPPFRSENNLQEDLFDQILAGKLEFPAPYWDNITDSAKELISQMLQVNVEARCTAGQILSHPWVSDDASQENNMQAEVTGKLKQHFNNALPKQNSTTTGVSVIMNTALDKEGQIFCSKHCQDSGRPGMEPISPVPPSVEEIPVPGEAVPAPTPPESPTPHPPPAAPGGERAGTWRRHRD
Sequence of STK25 (human) (O00506 whole entry, looked up): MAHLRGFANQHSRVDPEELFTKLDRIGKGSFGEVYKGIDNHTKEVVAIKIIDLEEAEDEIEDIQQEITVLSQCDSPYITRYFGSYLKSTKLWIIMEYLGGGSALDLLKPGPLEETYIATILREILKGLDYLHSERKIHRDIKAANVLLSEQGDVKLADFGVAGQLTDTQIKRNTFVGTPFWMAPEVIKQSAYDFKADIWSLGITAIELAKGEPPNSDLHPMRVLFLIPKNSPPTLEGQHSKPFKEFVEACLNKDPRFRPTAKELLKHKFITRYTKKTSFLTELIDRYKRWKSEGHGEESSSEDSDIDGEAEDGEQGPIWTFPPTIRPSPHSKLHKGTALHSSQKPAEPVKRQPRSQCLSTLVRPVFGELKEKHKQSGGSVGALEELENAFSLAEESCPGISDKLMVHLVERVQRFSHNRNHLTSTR
Sequence of CSNK1G3 (human) (Q9Y6M4 whole entry, looked up): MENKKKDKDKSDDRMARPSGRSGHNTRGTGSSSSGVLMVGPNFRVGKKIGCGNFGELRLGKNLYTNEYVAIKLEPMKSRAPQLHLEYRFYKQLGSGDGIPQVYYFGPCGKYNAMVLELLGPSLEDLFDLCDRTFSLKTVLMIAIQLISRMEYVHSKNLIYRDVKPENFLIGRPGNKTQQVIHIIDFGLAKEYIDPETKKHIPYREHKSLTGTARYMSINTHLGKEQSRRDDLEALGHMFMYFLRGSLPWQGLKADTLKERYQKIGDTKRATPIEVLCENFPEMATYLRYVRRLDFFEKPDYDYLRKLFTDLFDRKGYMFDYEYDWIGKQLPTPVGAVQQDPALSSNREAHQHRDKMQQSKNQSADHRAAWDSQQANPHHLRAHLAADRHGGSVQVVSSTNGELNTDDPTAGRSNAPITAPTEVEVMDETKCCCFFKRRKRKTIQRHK
Sequence of MST1R (human) (Q04912 whole entry, looked up): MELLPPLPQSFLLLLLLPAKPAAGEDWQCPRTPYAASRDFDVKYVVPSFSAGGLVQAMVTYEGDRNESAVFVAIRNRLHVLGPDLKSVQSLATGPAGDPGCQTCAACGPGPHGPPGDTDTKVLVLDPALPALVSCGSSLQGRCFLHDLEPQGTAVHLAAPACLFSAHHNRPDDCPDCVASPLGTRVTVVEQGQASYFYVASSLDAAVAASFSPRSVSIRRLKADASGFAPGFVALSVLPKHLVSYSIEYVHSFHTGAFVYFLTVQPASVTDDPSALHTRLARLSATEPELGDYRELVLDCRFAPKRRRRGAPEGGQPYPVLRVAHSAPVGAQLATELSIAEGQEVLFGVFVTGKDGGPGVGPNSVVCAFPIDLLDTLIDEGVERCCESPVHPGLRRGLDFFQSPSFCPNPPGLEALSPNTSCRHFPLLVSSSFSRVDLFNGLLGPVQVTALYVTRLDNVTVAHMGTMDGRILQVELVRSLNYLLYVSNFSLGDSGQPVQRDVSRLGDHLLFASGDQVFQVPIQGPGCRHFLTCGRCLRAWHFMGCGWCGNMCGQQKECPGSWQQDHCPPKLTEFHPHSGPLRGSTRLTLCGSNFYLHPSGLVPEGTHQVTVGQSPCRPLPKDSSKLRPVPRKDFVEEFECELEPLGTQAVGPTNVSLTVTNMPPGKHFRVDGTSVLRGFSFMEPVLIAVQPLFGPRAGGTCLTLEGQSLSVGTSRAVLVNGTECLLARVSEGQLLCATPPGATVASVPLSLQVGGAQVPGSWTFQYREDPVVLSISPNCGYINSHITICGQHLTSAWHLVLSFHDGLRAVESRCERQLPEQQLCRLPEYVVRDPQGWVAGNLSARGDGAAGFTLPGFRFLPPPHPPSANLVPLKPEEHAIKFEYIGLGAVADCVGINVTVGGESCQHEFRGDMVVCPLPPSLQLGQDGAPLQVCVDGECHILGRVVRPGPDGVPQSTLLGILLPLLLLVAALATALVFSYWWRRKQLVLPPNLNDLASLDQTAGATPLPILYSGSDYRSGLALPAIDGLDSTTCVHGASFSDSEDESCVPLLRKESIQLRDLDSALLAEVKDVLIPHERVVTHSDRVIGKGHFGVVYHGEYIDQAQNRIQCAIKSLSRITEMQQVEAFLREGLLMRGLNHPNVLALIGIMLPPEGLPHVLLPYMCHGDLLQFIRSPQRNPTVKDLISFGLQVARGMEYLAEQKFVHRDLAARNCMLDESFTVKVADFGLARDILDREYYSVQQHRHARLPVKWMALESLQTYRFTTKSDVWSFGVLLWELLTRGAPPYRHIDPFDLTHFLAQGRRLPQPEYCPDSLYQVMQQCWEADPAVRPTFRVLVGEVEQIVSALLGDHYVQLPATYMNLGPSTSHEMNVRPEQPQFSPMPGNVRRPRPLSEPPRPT
Sequence of PLK2 (human) (Q9NYY3 whole entry, looked up): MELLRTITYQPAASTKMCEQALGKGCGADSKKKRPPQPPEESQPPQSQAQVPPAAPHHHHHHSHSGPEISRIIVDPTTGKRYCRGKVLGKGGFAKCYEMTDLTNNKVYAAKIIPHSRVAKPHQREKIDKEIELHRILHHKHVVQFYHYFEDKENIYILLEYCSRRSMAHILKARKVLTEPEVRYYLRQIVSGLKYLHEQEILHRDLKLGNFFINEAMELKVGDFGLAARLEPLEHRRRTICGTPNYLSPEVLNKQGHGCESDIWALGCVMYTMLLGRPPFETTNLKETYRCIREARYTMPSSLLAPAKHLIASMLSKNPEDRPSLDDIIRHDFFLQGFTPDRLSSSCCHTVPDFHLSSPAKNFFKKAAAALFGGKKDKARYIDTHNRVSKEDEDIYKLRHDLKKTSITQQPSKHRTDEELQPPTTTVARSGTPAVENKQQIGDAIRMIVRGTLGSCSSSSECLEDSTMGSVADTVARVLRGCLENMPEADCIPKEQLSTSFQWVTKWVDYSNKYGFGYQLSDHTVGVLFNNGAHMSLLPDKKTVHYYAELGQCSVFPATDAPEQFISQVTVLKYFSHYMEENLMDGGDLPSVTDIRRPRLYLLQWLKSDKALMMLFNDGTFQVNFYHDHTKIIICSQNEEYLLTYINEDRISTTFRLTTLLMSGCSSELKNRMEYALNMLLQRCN
Sequence of PASK (human) (Q96RG2 whole entry, looked up): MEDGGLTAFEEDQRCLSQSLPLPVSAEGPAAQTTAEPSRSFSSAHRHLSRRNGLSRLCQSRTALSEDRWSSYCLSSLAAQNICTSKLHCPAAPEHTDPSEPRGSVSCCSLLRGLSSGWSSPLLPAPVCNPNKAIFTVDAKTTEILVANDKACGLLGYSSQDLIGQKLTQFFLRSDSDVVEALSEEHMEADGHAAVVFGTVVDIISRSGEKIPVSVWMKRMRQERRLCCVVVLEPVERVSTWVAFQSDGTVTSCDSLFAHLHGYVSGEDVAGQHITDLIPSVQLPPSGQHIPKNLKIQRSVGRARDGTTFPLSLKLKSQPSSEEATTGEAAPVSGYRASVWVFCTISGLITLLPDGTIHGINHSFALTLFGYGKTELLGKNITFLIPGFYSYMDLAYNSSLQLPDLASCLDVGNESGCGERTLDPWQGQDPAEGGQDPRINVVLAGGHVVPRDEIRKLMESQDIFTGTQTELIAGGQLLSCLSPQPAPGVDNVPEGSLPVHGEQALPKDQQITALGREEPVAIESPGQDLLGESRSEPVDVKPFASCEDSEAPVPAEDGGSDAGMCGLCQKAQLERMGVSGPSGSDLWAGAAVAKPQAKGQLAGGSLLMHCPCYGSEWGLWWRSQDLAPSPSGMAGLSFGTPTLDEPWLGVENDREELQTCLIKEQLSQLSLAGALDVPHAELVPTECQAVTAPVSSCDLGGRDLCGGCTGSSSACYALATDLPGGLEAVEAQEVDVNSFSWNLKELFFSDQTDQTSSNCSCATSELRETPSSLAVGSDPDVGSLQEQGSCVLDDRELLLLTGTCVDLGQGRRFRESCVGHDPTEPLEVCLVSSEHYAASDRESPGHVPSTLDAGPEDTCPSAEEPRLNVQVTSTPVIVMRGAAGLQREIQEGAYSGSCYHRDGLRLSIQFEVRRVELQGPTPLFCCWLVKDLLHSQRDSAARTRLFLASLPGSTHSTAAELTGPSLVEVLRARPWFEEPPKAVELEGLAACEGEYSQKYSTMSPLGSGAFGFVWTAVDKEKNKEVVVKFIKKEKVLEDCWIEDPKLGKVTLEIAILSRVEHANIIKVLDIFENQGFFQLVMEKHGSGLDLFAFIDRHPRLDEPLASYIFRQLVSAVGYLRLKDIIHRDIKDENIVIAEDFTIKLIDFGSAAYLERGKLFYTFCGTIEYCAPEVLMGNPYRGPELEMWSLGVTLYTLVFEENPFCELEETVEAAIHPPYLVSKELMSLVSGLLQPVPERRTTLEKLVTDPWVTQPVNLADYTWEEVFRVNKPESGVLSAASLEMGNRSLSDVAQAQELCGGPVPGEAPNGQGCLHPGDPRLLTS

With `NC(=O)c1ccc(N(C(N)=O)c2c(F)cccc2F)nc1-c1ccc(F)cc1F` as the compound, how does the residual activity [1] read?
The residual activity was 81.3%.

What about the residual activity [2] of the same compound?
Its residual activity is 100%.

And the residual activity [3]?
Its residual activity is 98.8%.

What about the residual activity [4] of the same compound?
Its residual activity is 90.5%.

And the residual activity [5]?
The residual activity was 107%.

And the residual activity [6]?
Its residual activity is 108%.

What about the residual activity [7] of the same compound?
The residual activity was 102%.

And the residual activity [8]?
Its residual activity is 97.5%.

And the residual activity [9]?
Its residual activity is 90.1%.

What about the residual activity [10] of the same compound?
Its residual activity is 94.7%.

What about the residual activity [11] of the same compound?
The residual activity was 102%.

What about the residual activity [12] of the same compound?
The residual activity was 96.3%.

What about the residual activity [13] of the same compound?
Its residual activity is 95.9%.

What about the residual activity [14] of the same compound?
Its residual activity is 83.9%.

And the residual activity [15]?
Its residual activity is 114%.

And the residual activity [16]?
Its residual activity is 77.6%.

And the residual activity [17]?
Its residual activity is 101%.

And the residual activity [18]?
Its residual activity is 98.2%.

And the residual activity [19]?
Its residual activity is 95.1%.

And the residual activity [20]?
The residual activity was 90.7%.

And the residual activity [21]?
Its residual activity is 131%.

What about the residual activity [22] of the same compound?
The residual activity was 99.5%.

What about the residual activity [23] of the same compound?
Its residual activity is 93.1%.

And the residual activity [24]?
The residual activity was 97.1%.

And the residual activity [25]?
The residual activity was 98.7%.

What about the residual activity [26] of the same compound?
The residual activity was 98.3%.

What about the residual activity [27] of the same compound?
The residual activity was 97.1%.

What about the residual activity [28] of the same compound?
The residual activity was 112%.

What about the residual activity [29] of the same compound?
The residual activity was 103%.

And the residual activity [30]?
Its residual activity is 96.3%.

What about the residual activity [31] of the same compound?
Its residual activity is 109%.

What about the residual activity [32] of the same compound?
The residual activity was 99.9%.

And the residual activity [33]?
The residual activity was 96.6%.

What about the residual activity [34] of the same compound?
Its residual activity is 104%.

What about the residual activity [35] of the same compound?
The residual activity was 96.4%.

What about the residual activity [36] of the same compound?
The residual activity was 100%.

What about the residual activity [37] of the same compound?
The residual activity was 101%.

And the residual activity [38]?
Its residual activity is 99%.

What about the residual activity [39] of the same compound?
Its residual activity is 102%.

What about the residual activity [40] of the same compound?
The residual activity was 103%.

What about the residual activity [41] of the same compound?
Its residual activity is 89.8%.

What about the residual activity [42] of the same compound?
The residual activity was 94.2%.

For `CS(=O)c1ccc(-c2nc(-c3ccc(F)cc3)c(-c3ccncc3)[nH]2)cc1` (centres undefined), which residual activity [1] is on record?
The residual activity was 88.3%.

What about the residual activity [2] of the same compound?
Its residual activity is 96.1%.

And the residual activity [3]?
Its residual activity is 105%.

What about the residual activity [4] of the same compound?
Its residual activity is 103%.

And the residual activity [5]?
Its residual activity is 108%.

And the residual activity [6]?
Its residual activity is 99.3%.

And the residual activity [7]?
The residual activity was 90.3%.

And the residual activity [8]?
The residual activity was 99.8%.

And the residual activity [9]?
Its residual activity is 101%.

What about the residual activity [10] of the same compound?
The residual activity was 97.3%.

What about the residual activity [11] of the same compound?
The residual activity was 95.6%.

And the residual activity [12]?
Its residual activity is 99.2%.

What about the residual activity [13] of the same compound?
The residual activity was 98%.

What about the residual activity [14] of the same compound?
Its residual activity is 91.1%.

What about the residual activity [15] of the same compound?
Its residual activity is 93.9%.

What about the residual activity [16] of the same compound?
Its residual activity is 95.6%.

What about the residual activity [17] of the same compound?
Its residual activity is 80.2%.

What about the residual activity [18] of the same compound?
The residual activity was 31%.

And the residual activity [19]?
Its residual activity is 100%.

And the residual activity [20]?
Its residual activity is 94.1%.

What about the residual activity [21] of the same compound?
Its residual activity is 99.1%.

What about the residual activity [22] of the same compound?
Its residual activity is 103%.

What about the residual activity [23] of the same compound?
Its residual activity is 102%.

And the residual activity [24]?
The residual activity was 111%.

And the residual activity [25]?
The residual activity was 131%.

What about the residual activity [26] of the same compound?
Its residual activity is 104%.

What about the residual activity [27] of the same compound?
The residual activity was 104%.

And the residual activity [28]?
The residual activity was 95%.

And the residual activity [29]?
The residual activity was 103%.

What about the residual activity [30] of the same compound?
Its residual activity is 100%.

And the residual activity [31]?
The residual activity was 105%.

What about the residual activity [32] of the same compound?
The residual activity was 97.3%.

What about the residual activity [33] of the same compound?
The residual activity was 101%.

And the residual activity [34]?
Its residual activity is 103%.

And the residual activity [35]?
Its residual activity is 103%.

What about the residual activity [36] of the same compound?
The residual activity was 98.9%.

What about the residual activity [37] of the same compound?
The residual activity was 97%.

What about the residual activity [38] of the same compound?
Its residual activity is 90.7%.

What about the residual activity [39] of the same compound?
The residual activity was 92.5%.

And the residual activity [40]?
The residual activity was 99.1%.

And the residual activity [41]?
The residual activity was 13.9%.

And the residual activity [42]?
The residual activity was 129%.

From the kinase profiling compilation of Christmann-Franck et al. (2016)
